Assays:
Rat white adipocytes = experiment: Lipolysis stimulated in rat white adipocytes (glycerol release); format: cell-based; conditions: Adipocyte, 0.5 h, 30 minutes
Description: Rat white adipocytes were prepared by collagenase digestion as described by Rodbell (1964) with the modification of Honnor et al. (1985), in that adenosine (200 nM) was included in the preparation to inhibit basal lipolysis.
Lipolysis stimulated by β-agonists was measured over 30 minutes in medium where the adenosine concentration was controlled; the medium included (-)-N^6 -(2-phenylisopropyl)adenosine (100 nM)+deaminase as decribed by Honnor et al. (1985). The incubation was stopped by addition of trichloracetic acid (0.2 ml of 10% w/v) to 1 ml of cells. Glycerol was measured by the fluorimetric method of Boobis and Maugham (1983).

Rat β1 adrenoceptor = target: T1, Rat β1 adrenoceptor (Rattus norvegicus, UniProt P18090); experiment: β1-Adrenoceptor agonism, increase in rate of spontaneously beating right atria; format: cell-based, Rat (female Sprague-Dawley); conditions: in vitro, 37° C., Krebs-Henseleit solution
T1 construct: Spontaneously beating right atria were removed; from tissue; host or cells: right atria of female Sprague-Dawley rats
Description: (§1) Agonist Activity at Rat β1 and β2 Adrenoceptors In Vitro
Female Sprague-Dawley rats (150-250 g) were killed by a blow to the head and exsanguinated. Spontaneously beating right atria were removed by the method of Broadley and Lumley (1977) and mounted on a glass tissue holder. Each tissue was placed in 30 ml organ baths at 37° C. containing Kreb's-Henseleit solution. Each atrium was attached to an isometric transducer by cotton and placed under an initial resting tension of 1 g. Rate recordings from the spontaneous beating atria were obtained from the tension signal using a Lectromed Type 4522 ratemeter. All traces were recorded on a Lectromed M4 chart recorder. β-adrenoceptor agonists were then added to the Krebs medium in a cumulative fashion and the results expressed as a percentage increase in atrial rate.
(§2) Agonist EC50 (atria) and IC50 (uteri) were calculated as the concentration of agonist producing 50% of their maximum increase in atrial rate or uterine relaxation. Relative intrinsic activity expressed as the maximal responses to test agonists relative to isoprenaline (=1.0) in both atria and uteri.

Rat β2 adrenoceptor = target: T2, Rat β2 adrenoceptor (Rattus norvegicus, UniProt P10608); experiment: β2-Adrenoceptor agonism, inhibition of contraction of K+-pre-contracted uterine strips; format: cell-based; conditions: pre-contracted with 40 mM K+
T2 construct: Rat uterine horns were removed and bisected longitudinally; from tissue; host or cells: rat uterine horns (uterine strips)
Description: as §1
Rat uterine horns were removed and bisected longitudinally. Each tissue was tied to a glass tissue holder and placed in Krebs-Henseleit solution in a 30 ml organ bath as before. Tissues were placed under a resting tension of 1 g and allowed to equilibrate. Each uterine strip was pre-contracted by the addition of 40 mM K^+ to the bath to produced a steady tonic contraction. β-agonists were then added to the bath in a cumulative manner and results were expressed as percentage inhibition of contraction.
as §2

T1 sequence (P18090 whole entry): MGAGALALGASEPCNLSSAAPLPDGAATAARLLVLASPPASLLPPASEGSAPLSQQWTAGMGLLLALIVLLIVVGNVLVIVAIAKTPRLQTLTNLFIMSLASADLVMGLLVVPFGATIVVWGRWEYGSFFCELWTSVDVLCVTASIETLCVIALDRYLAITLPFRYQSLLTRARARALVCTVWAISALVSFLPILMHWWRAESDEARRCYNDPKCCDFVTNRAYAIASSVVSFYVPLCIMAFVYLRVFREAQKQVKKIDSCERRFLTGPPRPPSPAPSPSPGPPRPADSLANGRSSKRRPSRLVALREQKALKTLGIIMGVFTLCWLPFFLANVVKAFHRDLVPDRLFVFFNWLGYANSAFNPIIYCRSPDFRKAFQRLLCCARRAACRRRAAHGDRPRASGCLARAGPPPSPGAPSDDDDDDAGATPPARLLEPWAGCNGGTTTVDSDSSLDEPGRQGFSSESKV
T2 sequence (P10608 whole entry): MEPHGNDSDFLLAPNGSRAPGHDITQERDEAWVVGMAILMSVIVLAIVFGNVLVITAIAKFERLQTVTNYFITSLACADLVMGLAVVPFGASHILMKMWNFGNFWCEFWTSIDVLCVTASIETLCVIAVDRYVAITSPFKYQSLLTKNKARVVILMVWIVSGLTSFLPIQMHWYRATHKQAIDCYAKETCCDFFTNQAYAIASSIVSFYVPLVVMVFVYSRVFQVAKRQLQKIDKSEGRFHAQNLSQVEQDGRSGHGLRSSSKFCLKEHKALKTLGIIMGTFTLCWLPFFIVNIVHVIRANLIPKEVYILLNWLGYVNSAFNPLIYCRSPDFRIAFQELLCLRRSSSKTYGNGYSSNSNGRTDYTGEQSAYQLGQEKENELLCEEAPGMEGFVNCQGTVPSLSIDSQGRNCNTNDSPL

In the case of CCOP(=O)(O)COc1ccc(C[C@@H](C)NC[C@H](O)c2cccc(Cl)c2)cc1 (relative stereo) [Example 2, (RR,SS)-Sodium Ethyl 4-[2-[2-(3-chlorophenyl)-2-hydroxyethylamino]propyl]phenoxymethylphosphonate], the EC50 (Rat white adipocytes) is reported as 0.077 µM, the Emax (Rat white adipocytes; read-out: Intrinsic Activity) is reported as 95% and the Ki (Rat β1 adrenoceptor) is reported as 37600 nM. The Ki (Rat β2 adrenoceptor) was 10000 nM.

Reference: patent publication US5519006A, “Phosphonated arylethanolamine compounds with anti-hyperglycemic and/or anti-obesity activity” (SmithKline Beecham plc, priority 1992, dated 1996)
